Patent US11040027B2, “Protein kinase inhibitors for promoting liver regeneration or reducing or preventing hepatocyte death” (HEPAREGENIX GMBH, priority 2017, dated 2021)

Tests used:
MKK4 = biological target: T1, MKK4 (Homo sapiens, UniProt P45985); assay: KINOMEscan competition binding assay, MKK4; settings: read-out: Potency MKK4 (derived from % of control values, PoC)
T1 sequence (P45985 84-399): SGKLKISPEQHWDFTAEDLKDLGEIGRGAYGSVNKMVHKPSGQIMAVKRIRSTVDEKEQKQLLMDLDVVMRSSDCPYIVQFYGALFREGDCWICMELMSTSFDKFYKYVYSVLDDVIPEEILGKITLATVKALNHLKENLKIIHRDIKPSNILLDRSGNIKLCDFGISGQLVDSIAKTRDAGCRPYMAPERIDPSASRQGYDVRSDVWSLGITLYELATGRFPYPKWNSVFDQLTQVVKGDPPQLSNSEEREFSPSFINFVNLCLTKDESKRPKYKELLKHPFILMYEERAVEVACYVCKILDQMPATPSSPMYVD
Experimental: (§1) For investigation of the affinity to MKK4, MKK7 and JNK1, the kinases were produced in HEK-293 cells and subsequently tagged with DNA for qPCR detection. […] The liganded beads were blocked with excess biotin and washed with blocking buffer (SEABLOCK™ (Pierce), 1% BSA, 0.05% TWEEN®20, 1 mM DTT) to remove unbound ligand and to reduce nonspecific binding. […] All reactions were performed in polystyrene 96-well plates in a final volume of 0.135 mL. […] The kinase concentration in the eluates was measured by qPCR.

MKK7 = biological target: T2, MKK7 (Homo sapiens, UniProt O14733); assay: KINOMEscan competition binding assay, selectivity MKK7 versus MKK4; settings: Test conc. 0.1 μM; ratio of percent of control; N/E* per footnote
T2 sequence (O14733 1-419): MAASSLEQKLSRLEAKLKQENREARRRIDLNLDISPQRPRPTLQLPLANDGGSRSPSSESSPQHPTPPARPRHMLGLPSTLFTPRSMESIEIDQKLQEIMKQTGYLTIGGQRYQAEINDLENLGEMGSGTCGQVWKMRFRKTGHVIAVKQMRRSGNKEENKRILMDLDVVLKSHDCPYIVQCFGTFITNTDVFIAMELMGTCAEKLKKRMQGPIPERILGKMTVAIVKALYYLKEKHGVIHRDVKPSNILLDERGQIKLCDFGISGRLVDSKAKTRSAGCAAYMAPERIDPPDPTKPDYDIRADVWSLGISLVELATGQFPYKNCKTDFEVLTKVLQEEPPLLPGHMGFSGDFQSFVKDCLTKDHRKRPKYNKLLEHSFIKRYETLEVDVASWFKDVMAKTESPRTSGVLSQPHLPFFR
Experimental: as §1

JNK1 = JNK1 (Homo sapiens, UniProt P45983); assay: KINOMEscan competition binding assay, selectivity JNK1 versus MKK4; settings: ratio of percent of control
Sequence of JNK1 (P45983 1-384 isoform P45983-2): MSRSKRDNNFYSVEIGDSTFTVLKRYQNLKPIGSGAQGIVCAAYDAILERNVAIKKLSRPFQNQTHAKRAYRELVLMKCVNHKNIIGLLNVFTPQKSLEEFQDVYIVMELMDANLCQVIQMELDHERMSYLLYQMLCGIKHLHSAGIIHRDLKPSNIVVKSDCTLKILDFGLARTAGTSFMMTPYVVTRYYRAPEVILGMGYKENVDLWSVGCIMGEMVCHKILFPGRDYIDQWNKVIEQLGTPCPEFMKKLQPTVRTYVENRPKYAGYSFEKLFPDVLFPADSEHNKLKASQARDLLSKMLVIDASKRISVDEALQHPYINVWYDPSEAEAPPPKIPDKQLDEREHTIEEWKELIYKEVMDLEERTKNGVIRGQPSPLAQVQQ
Experimental: as §1

BRaf = BRaf (Homo sapiens, UniProt P15056); assay: KINOMEscan competition binding assay, selectivity BRaf versus MKK4; settings: Test conc. 0.1 μM; ratio of percent of control; N/E* per footnote
Sequence of BRaf (P15056 whole entry): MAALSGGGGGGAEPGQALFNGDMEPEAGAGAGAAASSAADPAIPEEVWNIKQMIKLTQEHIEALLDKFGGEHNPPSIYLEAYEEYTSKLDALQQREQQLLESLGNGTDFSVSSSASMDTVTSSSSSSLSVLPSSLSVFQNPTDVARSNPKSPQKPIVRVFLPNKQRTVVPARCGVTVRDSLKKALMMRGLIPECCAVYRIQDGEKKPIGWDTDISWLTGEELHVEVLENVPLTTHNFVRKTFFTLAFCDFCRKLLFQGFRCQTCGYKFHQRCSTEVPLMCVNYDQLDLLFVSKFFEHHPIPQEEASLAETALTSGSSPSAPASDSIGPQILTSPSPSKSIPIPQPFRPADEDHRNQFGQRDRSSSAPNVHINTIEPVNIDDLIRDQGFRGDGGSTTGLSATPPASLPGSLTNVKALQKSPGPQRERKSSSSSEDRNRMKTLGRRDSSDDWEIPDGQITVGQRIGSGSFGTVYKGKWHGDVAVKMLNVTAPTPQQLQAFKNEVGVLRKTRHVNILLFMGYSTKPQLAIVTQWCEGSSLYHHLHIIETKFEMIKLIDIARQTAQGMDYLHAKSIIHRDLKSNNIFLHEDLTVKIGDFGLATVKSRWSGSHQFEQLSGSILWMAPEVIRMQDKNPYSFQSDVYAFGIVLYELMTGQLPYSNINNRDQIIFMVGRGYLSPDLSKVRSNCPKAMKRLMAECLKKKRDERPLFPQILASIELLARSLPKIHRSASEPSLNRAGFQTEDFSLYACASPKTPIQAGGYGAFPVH
Experimental: The assay was performed by combining three components: DNA-tagged kinase; immobilized ligand; and a test compound. The ability of the test compound to compete with the immobilized ligand was measured via quantitative PCR of the DNA tag. The technology is described in detail in Fabian, M. A. et al. A small molecule-kinase interaction map for clinical kinase inhibitors. Nat. […] Nat.
The test compounds were provided as 10 mM stock solutions. The test solutions at indicated final concentrations were prepared at DiscoverX.

[1] = Test conc 0.1 μM, N/E* = PoC for JNK1 = 100

| Compound | remaining binding at 0.1 µM (MKK4) [%] | Selectivity MKK7/MKK4 (MKK7) | Selectivity JNK1/MKK4 (JNK1; Test conc 10 μM) | Selectivity BRaf/MKK4 (BRaf) | Selectivity JNK1/MKK4 (JNK1; [1]) |
| --- | --- | --- | --- | --- | --- |
| CCCS(=O)(=O)Nc1ccc(F)c(C(=O)c2c[nH]c3ncc(-c4ccc(OC)cc4)cc23)c1F [Example 3, N-(2,4-Difluoro-3-(5-(4-methoxyphenyl)-1H-pyrrolo[2,3-b]pyridine-3-carbonyl)phenyl)propane-1-sulfonamide] | 10 to 30 | 10 | >400 | 1.0 | – |
| CCCS(=O)(=O)Nc1ccc(F)c(C(=O)c2c[nH]c3ncc(-c4ccc(C#N)cc4)cc23)c1F [Example 4, N-(3-(5-(4-Cyanophenyl)-1H-pyrrolo[2,3-b]pyridine-3-carbonyl)-2,4-difluorophenyl)propane-1-sulfonamide] | 10 to 30 | 25 | >400 | 2.8 | – |
| CCCS(=O)(=O)Nc1ccc(F)c(C(=O)c2c[nH]c3ncc(-c4cnc5ccccc5c4)cc23)c1F [Example 6, N-(2,4-Difluoro-3-(5-(quinolin-3-yl)-1H-pyrrolo[2,3-b]pyridin-3-carbonyl)phenyl)propane-1-sulfonamide] | > 30 | 5.6 | >100 | 0.1 | – |
| CCCS(=O)(=O)Nc1ccc(F)c(C(=O)c2c[nH]c3ncc(-c4ccc(SC)cc4)cc23)c1F [Example 8, N-(2,4-Difluoro-3-(5-(4-(methylthio)phenyl)-1H-pyrrolo[2,3-b]pyridine-3-carbonyl)phenyl)propane-1-sulfonamide] | > 30 | 7.6 | >100 | 0.5 | – |
| CCCS(=O)(=O)Nc1ccc(F)c(C(=O)c2c[nH]c3ncc(-c4ccccc4O)cc23)c1F [Example 9, N-(2,4-Difluoro-3-(5-(2-hydroxyphenyl)-1H-pyrrolo[2,3-b]pyridine-3-carbonyl)phenyl)propane-1-sulfonamide] | > 30 | 6.7 | >10 | 4.2 | – |
| CCCS(=O)(=O)Nc1ccc(F)c(C(=O)c2c[nH]c3ncc(-c4ccc(F)cc4)cc23)c1F [Example 11, N-(2,4-Difluoro-3-(5-(4-fluorophenyl)-1H-pyrrolo[2,3-b]pyridine-3-carbonyl)phenyl)propane-1-sulfonamide] | 10 to 30 | 25 | >100 | 6.3 | – |
| CCCS(=O)(=O)Nc1ccc(F)c(C(=O)c2c[nH]c3ncc(-c4cccc(C#N)c4)cc23)c1F [Example 14, N-(3-(5-(3-Cyanophenyl)-1H-pyrrolo[2,3-b]pyridine-3-carbonyl)-2,4-difluorophenyl)propane-1-sulfonamide] | 10 to 30 | 10 | 23 | 1.5 | – |
| CCCS(=O)(=O)Nc1ccc(F)c(C(=O)c2c[nH]c3ncc(-c4ccc5c(c4)OCCO5)cc23)c1F [Example 15, N-(3-(5-(2,3-Dihydrobenzo[b][1,4]dioxin-6-yl)-1H-pyrrolo[2,3-b]pyridine-3-carbonyl)-2,4-difluorophenyl)propane-1-sulfonamide] | 10 to 30 | 30 | >100 | 2.0 | – |
| CCCS(=O)(=O)Nc1ccc(F)c(C(=O)c2c[nH]c3ncc(-c4ccc(F)c(F)c4)cc23)c1F [Example 16, N-(3-(5-(3,4-Difluorophenyl)-1H-pyrrolo[2,3-b]pyridine-3-carbonyl)-2,4-difluorophenyl)propane-1-sulfonamide] | > 30 | 8 | >100 | 2.5 | – |
| CCCS(=O)(=O)Nc1ccc(F)c(C(=O)c2c[nH]c3ncc(-c4cccc5ccccc45)cc23)c1F [Example 18, N-(2,4-Difluoro-3-(5-(naphthalen-1-yl)-1H-pyrrolo[2,3-b]pyridine-3-carbonyl)phenyl)propane-1-sulfonamide] | > 30 | 3 | 40 | 1.6 | – |
| CCCS(=O)(=O)Nc1cc(C)cc(C(=O)c2c[nH]c3ncc(-c4ccc(Cl)cc4)cc23)c1 [Example 24, N-(3-(5-(4-Chlorophenyl)-1H-pyrrolo[2,3-b]pyridine-3-carbonyl)-5-methylphenyl)propane-1-sulfonamide] | > 30 | 1.0 | – | 0.9 | N/E* (PoC for JNK1 = 100) |
| CCCS(=O)(=O)Nc1cccc(C(=O)c2c[nH]c3ncc(-c4ccc(Cl)cc4)cc23)c1C [Example 25, N-(3-(5-(4-Chlorophenyl)-1H-pyrrolo[2,3-b]pyridine-3-carbonyl)-2-methylphenyl)propane-1-sulfonamide] | > 30 | 1.0 | – | 1.0 | N/E* (PoC for JNK1 = 100) |
| CCCS(=O)(=O)Nc1ccc(F)c(C(=O)c2c[nH]c3ncc(-c4ccc(Cl)cc4Cl)cc23)c1F [Example 41, N-(3-(5-(2,4-Dichlorophenyl)-1H-pyrrolo[2,3-b]pyridine-3-carbonyl)-2,4-difluorophenyl)propane-1-sulfonamide] | > 30 | 3.3 | – | 3.3 | N/E* (PoC for JNK1 = 100) |
| CCCS(=O)(=O)Nc1ccc(F)c(C(=O)c2c[nH]c3ncc(-c4ccc(Cl)cc4F)cc23)c1F [Example 49] | < 10 | N/E* (PoC for JNK1 = 100) | – | 8.9 | 7.1 |
| CCCCS(=O)(=O)Nc1cccc(C(=O)c2c[nH]c3ncc(-c4ccc(F)cc4C)cc23)c1F [Example 51] | < 10 | N/E* (PoC for JNK1 = 100) | – | N/E* (PoC for JNK1 = 100) | N/E* (PoC for JNK1 = 100) |
| CCCS(=O)(=O)Nc1ccc(F)c(C(=O)c2c[nH]c3ncc(-c4ccc(O)cc4Cl)cc23)c1F [Example 94, N-(3-(5-(2-chloro-4-hydroxy-phenyl)-1H-pyrrolo[2,3-b]pyridine-3-carbonyl)-2,4-difluoro-phenyl)propane-1-sulfonamide] | < 10 | 22 | – | 20 | 25 |
| CCCS(=O)(=O)Nc1ccc(F)c(C(=O)c2c[nH]c3ncc(-c4ccc(OCC)cc4Cl)cc23)c1F [Example 95, N-(3-(5-(2-chloro-4-ethoxy-phenyl)-1H-pyrrolo[2,3-b]pyridine-3-carbonyl)-2,4-difluorophenyl)-propane-1-sulfonamide] | < 10 | N/E* (PoC for JNK1 = 100) | – | 6.5 | 8.6 |
| CCCS(=O)(=O)Nc1ccc(F)c(C(=O)c2c[nH]c3ncc(-c4ccc(OC(C)C)cc4Cl)cc23)c1F [Example 96, N-(3-(5-(2-chloro-4-isopropoxy-phenyl)-1H-pyrrolo[2,3-b]pyridine-3-carbonyl)-2,4-difluorophenyl)-propane-1-sulfonamide] | 10 to 30 | N/E* (PoC for JNK1 = 100) | – | 8.0 | 8.7 |
| CCCOc1ccc(-c2cnc3[nH]cc(C(=O)c4c(F)ccc(NS(=O)(=O)CCC)c4F)c3c2)c(Cl)c1 [Example 97, N-(3-(5-(2-chloro-4-propoxy-phenyl)-1H-pyrrolo[2,3-b]pyridine-3-carbonyl)-2,4-difluorophenyl)-propane-1-sulfonamide] | 10 to 30 | N/E* (PoC for JNK1 = 100) | – | 6.5 | 8.6 |
| CCCS(=O)(=O)Nc1ccc(F)c(C(=O)c2c[nH]c3ncc(-c4ccc(OCCOC)cc4Cl)cc23)c1F [Example 98, N-(3-(5-(2-chloro-4-(2-methoxy-ethoxy)phenyl)-1H-pyrrolo[2,3-b]pyridine-3-carbonyl)-2,4-difluorophenyl)propane-1-sulfonamide] | < 10 | 20 | – | 8.4 | 16 |
